Test system: ACAT activity
Assay: ACAT activity assay by liposome reconstitution method in human monocyte-derived macrophages
Type: cell-based
Settings: 0.6 nM during 7-day culture
Text: For ACAT activity assay, the liposome reconstitution method was used. This method involves the use of a system in which the ACAT-1 protein present in the endoplasmic reticulum is reconstituted into liposomes with the use of mixed micelles comprising cholesterol/phosphatidylcholine, thereby achieving a saturated concentration level of cholesterol that can be used as an ACAT-1 substrate [Cheng D et al., J Biol Chem. 1995; 270: 685-695.]. In the case of the conventionally used microsome method, cholesterol that endogenously exists in the endoplasmic reticulum has been used as a substrate. However, in general, the endoplasmic reticulum membrane is poor in cholesterol. Therefore, it is thought that the saturated level of cholesterol capable of serving as an ACAT substrate has not been achieved, resulting in underestimation of ACAT activity. Herein, ACAT activity was assayed by adding another substrate, [^14C]oleoyl-CoA, to a reaction system and assaying the cholesterol [^14C]oleate generated through the ACAT reaction (FIG. 4).
Peripheral blood human monocytes (4×10^6 cells/2 mL) were seeded on 4 to 6 6-cm dishes and cultured for 7 days so as to differentiate into macrophages. At such time, salusin-α or salusin-β was added during culture. […] The protein concentration of the homogenized cell extraction solution was quantitatively assayed by the BCA method (Pierce). […]

| Substance | ACAT activity relative to control [times] | ACAT activity, percent of that of the control [%] |
| --- | --- | --- |
| salusin-β: peptide (SEQ ID NO: 3) comprising 20 amino acid residues, generated by processing from preprosalusin (AIFIFIRWLLKLGHHGRAPP; listed as Homo sapiens) [reference compound] | 1.8 |  |
| salusin-α: peptide (SEQ ID NO: 1) comprising 28 amino acid residues, generated by processing from preprosalusin (SGALPPAPAAPRPALRAQRAGPAGPGAK; listed as Homo sapiens) |  | 50 |

Reference: patent US20110165173A1, “THERAPEUTIC AGENT AND DETECTION REAGENT FOR ARTERIOSCLEROTIC DISEASE WHICH TARGETS FOR SALUSIN” (PROTEINEXPRESS CO., LTD., priority 2007, published 2011)
